Paper PMC10535864, “Novel Aminopyrimidine-2,4-diones, 2-Thiopyrimidine-4-ones, and 6-Arylpteridines as Dual-Target Inhibitors of BRD4/PLK1: Design, Synthesis, Cytotoxicity, and Computational Studies” (Pharmaceuticals, 2023)

What was measured:
[1] = tested on: MDA-MB-231 breast cancer cells; experiment: MTT cytotoxicity assay, MDA-MB-231; type: cell-based; conditions: MDA-MB-231, MTT; for IC50 / viability at 0.312 µM / viability at 0.625 µM / viability at 1.25 µM / viability at 2.5 µM / viability at 5 µM / viability at 10 µM: Homo sapiens; for IC50: mean of three independent experiments ± SD, read-out: IC50 Value MDA-MB-231
Summary of the method: (§1)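 Cells seeded at 1 X 10^5 cells/mL and grown 24 h at 37°C to a monolayer, then exposed to two-fold compound dilutions in RPMI with 2% serum, six doses. MTT added for 4 h at 37°C, formazan dissolved in DMSO, OD read at 560 nm minus 620 nm background. IC50 from dose-response.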

[2] = tested on: HT-29 colorectal adenocarcinoma cells; experiment: MTT cytotoxicity assay, HT-29; type: cell-based; conditions: MTT; for Toxicity % / viability at 0.312 µM / viability at 0.625 µM / viability at 1.25 µM / viability at 2.5 µM / viability at 5 µM / viability at 10 µM: HT29; for viability at 0.312 µM / viability at 0.625 µM / viability at 1.25 µM / viability at 2.5 µM / viability at 5 µM / viability at 10 µM / IC50: Homo sapiens, HT-29; for IC50: mean of three independent experiments ± SD, read-out: IC50 Value HT-29
Summary of the method: as §1

[3] = MTT cytotoxicity assay, U-937; type: cell-based; conditions: Homo sapiens, U-937, U937, MTT;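 note: Six-dose MTT colorimetric assay on cell monolayers, formazan absorbance read at 560 nm with 620 nm background removed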
Procedure: (§2) All newly synthetic compounds were tested for cytotoxicity using a six-dose MTT colorimetric assay on three cancer cell lines; namely, breast cancer cells (MDA-MB-231), colorectal adenocarcinoma cells (HT-29) and renal cancer cells (U-937).
(§3) Using a six-dose MTT colorimetric assay [44, 66], all new synthetic compounds were tested for cytotoxicity against three cancer cell lines: MDA-MB-231 breast cancer cells, HT-29 colorectal adenocarcinoma cells, and U-937 renal cancer cells. […] These cell lines were supplied by ATCC (American Type Culture Collection) via the Holding company for biological products and vaccines (VACSERA, Cairo, Egypt). The reference control used was Methotrexate.
(§4) Using a six-dose MTT colorimetric assay [44, 66], allnew synthetic compounds were tested for cytotoxicity against three cancer cell lines: MDA-MB-231 breast cancer cells,HT-29 colorectal adenocarcinoma cells, and U-937 renal
(§5) The cell lines were supplied by ATCC (American Type Culture Collection). The reference control used was Methotrexate. The cytotoxic activities of the examined compounds were quantified by inoculating a 96-well tissue culture plate with 1 X 10^5 cells / mL (100 uL/well) and incubating it at 37°C for 24 hours to develop a complete monolayer sheet. After forming a confluent sheet of cells, the growth medium was decanted from 96-well microtiter plates, and the cell monolayer was washed twice with wash media. Two-fold dilutions of tested samples were made in RPMI medium with 2% serum (maintenance medium), and 0.1 mL of each dilution was tested in different wells, with three wells serving as controls and receiving only maintenance medium. Following that, the plate was incubated at 37°C and examined. Cells were investigated for any physical signs of toxicity, such as partial or complete monolayer loss, rounding, shrinkage, or cell granulation. MTT solution was prepared (5mg/ml in PBS) (BIO BASIC CANADA INC), and 20 uL MTT solution was added to each well. After 5 minutes on a shaking table at150 rpm to thoroughly mix the MTT into the media, it was incubated (37C, 5% CO2) for 4 hours to allow the MTT to be metabolized. Formazan (MTT metabolic product) was resuspended in 200 uL DMSO and shaken at 150 rpm for 5 minutes to thoroughly mix the formazan into the solvent. The optical density was measured at 560 nm, and the background was subtracted at 620 nm. Finally, the IC50 of the test compound in comparison to the reference was calculated using the GraphPad Prism software.

[4] = tested on: U-937 renal cancer cells; experiment: MTT cytotoxicity assay, U-937; type: cell-based; conditions: MTT; for IC50: Homo sapiens, U-937, mean of three independent experiments ± SD, read-out: IC50 Value U-937; for Toxicity %: U937;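 for all read-outs here: Six-dose MTT colorimetric assay on cell monolayers, formazan absorbance read at 560 nm with 620 nm background removed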
Procedure: as §2, §3, §4, §5

[5] = MTT cytotoxicity assay, normal Vero cells; type: cell-based; conditions: African green monkey, normal Vero cells, MTT; for IC50: mean of three independent experiments ± SD, read-out: In Vitro Cytotoxicity against Normal Cells IC50 Value, Vero Cells; for viability at 0.312 µM / viability at 0.625 µM / viability at 1.25 µM / viability at 2.5 µM / viability at 5 µM / viability at 10 µM: Vero
Procedure: as §3
1.1.In-vitro cytotoxicity screening
as §4, §5

[6] = tested on: normal Vero cells; experiment: MTT cytotoxicity assay, normal Vero cells; type: cell-based; conditions: Vero, MTT
Procedure: as §3
1.1.In-vitro cytotoxicity screening
as §4, §5

[7] = molecular target: T1, BRD4 (BD2) (Homo sapiens, UniProt O60885); experiment: BRD4 inhibitory activity assay (AlphaLISA Bromodomain Assay); type: binding; conditions: for %inh: BRD4 Lab Report; for IC50: mean of three independent experiments, read-out: BRD4 IC50 ± SD;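 for all read-outs here: in vitro inhibition of recombinant BRD4 BD2 bromodomain binding to a BET bromodomain ligand, read by AlphaLISA proximity signal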
T1 construct: BRD4 (BD2) should be thawed on ice; purchased

[8] = molecular target: human recombinant PLK1 (Homo sapiens, UniProt P53350); experiment: PLK1 inhibitory activity assay (ADP-Glo Kinase Assay); type: biochemical; conditions: for %inh: PLK1 Lab Report; for IC50: mean of three independent experiments, read-out: PLK1 IC50 ± SD
Sequence of human recombinant PLK1 (P53350 whole entry): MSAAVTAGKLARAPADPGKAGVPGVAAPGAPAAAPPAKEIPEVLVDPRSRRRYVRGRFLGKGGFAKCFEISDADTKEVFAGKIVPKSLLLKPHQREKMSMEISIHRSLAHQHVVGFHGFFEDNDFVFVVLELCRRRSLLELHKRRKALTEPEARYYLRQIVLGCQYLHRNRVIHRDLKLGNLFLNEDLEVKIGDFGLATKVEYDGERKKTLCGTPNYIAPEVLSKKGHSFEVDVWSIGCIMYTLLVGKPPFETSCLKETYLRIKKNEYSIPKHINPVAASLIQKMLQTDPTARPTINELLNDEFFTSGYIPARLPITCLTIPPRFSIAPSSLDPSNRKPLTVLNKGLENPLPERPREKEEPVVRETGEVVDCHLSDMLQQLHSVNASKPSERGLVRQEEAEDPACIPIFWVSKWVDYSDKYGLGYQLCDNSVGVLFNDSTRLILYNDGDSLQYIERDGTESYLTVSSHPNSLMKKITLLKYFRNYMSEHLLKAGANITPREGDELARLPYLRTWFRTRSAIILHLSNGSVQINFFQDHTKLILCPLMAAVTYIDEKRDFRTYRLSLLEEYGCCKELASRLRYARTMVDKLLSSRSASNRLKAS
Procedure: The BRD4 and PLK1 inhibitory assays were carried out in vitro in accordance with the manufacturer’s instructions; BRD4 was assessed using AlphaLISA Bromodomain Assay Protocol, and PLK1 kinase was tested using the ADP-Glo™ Kinase Assay Protocol, as detailed in the Supplementary file. […]
1.2.2. PLK1 inhibitory activity assay
The kinase reaction was performed with active human recombinant PLK1 and combined with the substrate dephosphorylated casein (positive control) using 1 X reaction buffer (40 mM Tris-HCl pH 7.4, 20 mM MgCl2, 0.1 mg/mL BSA, 1 mM DTT) and 20 μM ATP. The reaction was incubated at30°C for 45 minutes. The amount of ATP transferred was calculated using […] reagent from Promega according to the manufacturer’s instruction.
A plate-reading luminometer isused to measure the luminescence. […]

Question: Which IC50 [1] does the source give for `Nc1c(/N=C(/CBr)c2ccccc2)c(=O)[nH]c(=O)n1Cc1ccccc1` [Compound 4, (E)-6-Amino-1-benzyl-5-((2-bromo-1-phenylethylidene)amino)pyrimidine-2,4(1H,3H)-dione] here?
Answer: 0.78 ± 0.01 µM

Question: What about the viability at 0.312 µM ([1]; 0.312 uM) of the same molecule?
Answer: 99.7%

Question: What about the viability at 0.625 µM ([1]; 0.625 uM) of the same molecule?
Answer: 57.8%

Question: What about the viability at 1.25 µM ([1]; 1.25 uM) of the same molecule?
Answer: 7.14%

Question: And the viability at 2.5 µM ([1]; 2.5 uM)?
Answer: 8.02%

Question: And the viability at 5 µM ([1]; 5 uM)?
Answer: 5.1%

Question: And the viability at 10 µM ([1]; 10 uM)?
Answer: 4.7%

Question: What about the Toxicity % ([1]; 0.312 uM) of the same molecule?
Answer: 0.3103%

Question: What about the Toxicity % ([1]; 0.625 uM) of the same molecule?
Answer: 42.24%

Question: And the Toxicity % ([1]; 1.25 uM)?
Answer: 92.86%

Question: And the Toxicity % ([1]; 2.5 uM)?
Answer: 91.98%

Question: What about the Toxicity % ([1]; 5 uM) of the same molecule?
Answer: 94.9%

Question: And the Toxicity % ([1]; 10 uM)?
Answer: 95.3%

Question: And the Toxicity % ([2]; 0.312 uM)?
Answer: 0.1292%

Question: And the Toxicity % ([2]; 0.625 uM)?
Answer: 48.06%

Question: What about the Toxicity % ([2]; 1.25 uM) of the same molecule?
Answer: 92.12%

Question: And the Toxicity % ([2]; 2.5 uM)?
Answer: 92.46%

Question: What about the Toxicity % ([2]; 5 uM) of the same molecule?
Answer: 92.76%

Question: And the Toxicity % ([2]; 10 uM)?
Answer: 93.84%

Question: What about the viability at 0.312 µM ([2]; 0.312 uM) of the same molecule?
Answer: 99.9%

Question: What about the viability at 0.625 µM ([2]; 0.625 uM) of the same molecule?
Answer: 51.9%

Question: What about the viability at 1.25 µM ([2]; 1.25 uM) of the same molecule?
Answer: 7.88%

Question: And the viability at 2.5 µM ([2]; 2.5 uM)?
Answer: 7.54%

Question: What about the viability at 5 µM ([2]; 5 uM) of the same molecule?
Answer: 7.24%

Question: And the viability at 10 µM ([2]; 10 uM)?
Answer: 6.16%

Question: And the IC50 [2]?
Answer: 0.76 µM

Question: And the viability at 0.312 µM [3]?
Answer: 97.3%

Question: What about the viability at 0.625 µM [3] of the same molecule?
Answer: 83%

Question: What about the viability at 1.25 µM [3] of the same molecule?
Answer: 24.8%

Question: What about the viability at 2.5 µM [3] of the same molecule?
Answer: 8.01%

Question: And the viability at 5 µM [3]?
Answer: 7.46%

Question: And the viability at 10 µM [3]?
Answer: 7.9%

Question: And the IC50 [4]?
Answer: 0.95 µM

Question: What about the Toxicity % ([4]; 0.312 uM) of the same molecule?
Answer: 2.669%

Question: What about the Toxicity % ([4]; 0.625 uM) of the same molecule?
Answer: 16.99%

Question: What about the Toxicity % ([4]; 1.25 uM) of the same molecule?
Answer: 75.22%

Question: What about the Toxicity % ([4]; 2.5 uM) of the same molecule?
Answer: 91.99%

Question: What about the Toxicity % ([4]; 5 uM) of the same molecule?
Answer: 92.54%

Question: What about the Toxicity % ([4]; 10 uM) of the same molecule?
Answer: 92.1%

Question: What about the IC50 [5] of the same molecule?
Answer: 1.73 ± 0.03 µM

Question: And the viability at 0.312 µM [5]?
Answer: 100%

Question: And the viability at 0.625 µM [5]?
Answer: 92.9%

Question: What about the viability at 1.25 µM [5] of the same molecule?
Answer: 63.6%

Question: What about the viability at 2.5 µM [5] of the same molecule?
Answer: 23.6%

Question: What about the viability at 5 µM [5] of the same molecule?
Answer: 6.63%

Question: And the viability at 10 µM [5]?
Answer: 2.28%

Question: What about the Toxicity % ([6]; 0.312 uM) of the same molecule?
Answer: 0%

Question: And the Toxicity % ([6]; 0.625 uM)?
Answer: 7.106%

Question: What about the Toxicity % ([6]; 1.25 uM) of the same molecule?
Answer: 36.41%

Question: What about the Toxicity % ([6]; 2.5 uM) of the same molecule?
Answer: 76.37%

Question: And the Toxicity % ([6]; 5 uM)?
Answer: 93.37%

Question: What about the Toxicity % ([6]; 10 uM) of the same molecule?
Answer: 97.72%

Question: And the “%inh” value ([7]; conc 0.01 (unit not given))?
Answer: 41%

Question: And the “%inh” value ([7]; conc 0.1 (unit not given))?
Answer: 58%

Question: And the “%inh” value ([7]; conc 1 (unit not given))?
Answer: 75%

Question: And the “%inh” value ([7]; conc 10 (unit not given))?
Answer: 91%

Question: What about the “%inh” value ([7]; conc 100 (unit not given)) of the same molecule?
Answer: 95%

Question: And the IC50 [7]?
Answer: 0.029 ± 0.001 µM

Question: And the “%inh” value ([8]; conc 0.01 (unit not given))?
Answer: 34%

Question: What about the “%inh” value ([8]; conc 0.1 (unit not given)) of the same molecule?
Answer: 46%

Question: What about the “%inh” value ([8]; conc 1 (unit not given)) of the same molecule?
Answer: 70%

Question: And the “%inh” value ([8]; conc 10 (unit not given))?
Answer: 88%

Question: And the “%inh” value ([8]; conc 100 (unit not given))?
Answer: 95%

Question: And the IC50 [8]?
Answer: 0.094 ± 0.004 µM

Question: What does the source list for `Cn1c(SCC(=O)c2ccccc2)nc(=O)c(/N=C(/CBr)c2ccccc2)c1N` [Compound 7, (E)-6-Amino-5-((2-bromo-1-phenylethylidene)amino)-1-methyl-2-((2-oxo-2-phenylethyl)thio)pyrimidin-4(1H)-one]?
Answer: IC50 [1]: 0.4 ± 0.01 µM; viability at 0.312 µM ([1]; 0.312 uM): 57%; viability at 0.625 µM ([1]; 0.625 uM): 28.9%; viability at 1.25 µM ([1]; 1.25 uM): 16.5%; viability at 2.5 µM ([1]; 2.5 uM): 11.7%; viability at 5 µM ([1]; 5 uM): 11%; viability at 10 µM ([1]; 10 uM): 4.92%; Toxicity % ([1]; 0.312 uM): 42.95%; Toxicity % ([1]; 0.625 uM): 71.14%; Toxicity % ([1]; 1.25 uM): 83.51%; Toxicity % ([1]; 2.5 uM): 88.25%; Toxicity % ([1]; 5 uM): 88.96%; Toxicity % ([1]; 10 uM): 95.08%; Toxicity % ([2]; 0.312 uM): 0.04307%; Toxicity % ([2]; 0.625 uM): 45.56%; Toxicity % ([2]; 1.25 uM): 86.39%; Toxicity % ([2]; 2.5 uM): 88.67%; Toxicity % ([2]; 5 uM): 93.28%; Toxicity % ([2]; 10 uM): 93.71%; viability at 0.312 µM ([2]; 0.312 uM): 100%; viability at 0.625 µM ([2]; 0.625 uM): 54.4%; viability at 1.25 µM ([2]; 1.25 uM): 13.6%; viability at 2.5 µM ([2]; 2.5 uM): 11.3%; viability at 5 µM ([2]; 5 uM): 6.72%; viability at 10 µM ([2]; 10 uM): 6.29%; IC50 [2]: 0.79 ± 0.01 µM; viability at 0.312 µM [3]: 94%; viability at 0.625 µM [3]: 88.3%; viability at 1.25 µM [3]: 55.4%; viability at 2.5 µM [3]: 39.7%; viability at 5 µM [3]: 29.6%; viability at 10 µM [3]: 11.4%; IC50 [4]: 1.85 ± 0.04 µM; Toxicity % ([4]; 0.312 uM): 5.991%; Toxicity % ([4]; 0.625 uM): 11.66%; Toxicity % ([4]; 1.25 uM): 44.55%; Toxicity % ([4]; 2.5 uM): 60.35%; Toxicity % ([4]; 5 uM): 70.37%; Toxicity % ([4]; 10 uM): 88.56%; IC50 [5]: 3.92 ± 0.08 µM; viability at 0.312 µM [5]: 99.6%; viability at 0.625 µM [5]: 99.8%; viability at 1.25 µM [5]: 97.6%; viability at 2.5 µM [5]: 73.5%; viability at 5 µM [5]: 31.6%; viability at 10 µM [5]: 10.5%; Toxicity % ([6]; 0.312 uM): 0.3992%; Toxicity % ([6]; 0.625 uM): 0.1996%; Toxicity % ([6]; 1.25 uM): 2.395%; Toxicity % ([6]; 2.5 uM): 26.55%; Toxicity % ([6]; 5 uM): 68.38%; Toxicity % ([6]; 10 uM): 89.46%; %inh ([7]; conc 0.01 (unit not given)): 38%; %inh ([7]; conc 0.1 (unit not given)): 56%; %inh ([7]; conc 1 (unit not given)): 74%; %inh ([7]; conc 10 (unit not given)): 89%; %inh ([7]; conc 100 (unit not given)): 95%; IC50 [7]: 0.042 ± 0.002 µM; %inh ([8]; conc 0.01 (unit not given)): 43%; %inh ([8]; conc 0.1 (unit not given)): 60%; %inh ([8]; conc 1 (unit not given)): 76%; %inh ([8]; conc 10 (unit not given)): 90%; %inh ([8]; conc 100 (unit not given)): 95%; IC50 [8]: 0.02 ± 0.001 µM
